According to patent EP3130590A1, “AROMATIC AZA COMPOUNDS AS VR1/TRPV1 LIGANDS” (Grünenthal GmbH, priority 2015, dated 2017):

Target: T1, vanilloid receptor 1 (VR1/TRPV1 receptor) (Homo sapiens, UniProt Q8NER1)
T1 construct: expressed in transfected cells; host or cells: CHO K1
Test: Functional testing on the vanilloid receptor 1 (FLIPR Ca2+ influx assay, capsaicin stimulation)
Format: cell-based
Conditions: capsaicin (CAP) 100 nM; for inhibition at 1 µM: @ 1 µM test compound; for inhibition at 1 µM / inhibition at 5 µM: relative to maximum achievable inhibition with 10 µM capsazepine, read-out: inhibition (in %), column (f) Ki human [nM] CAP; for inhibition at 5 µM: @ 5 µM test compound
Procedure: Furthermore, preference may be given to compounds according to the invention that cause a 50 per cent displacement of capsaicin, which is present at a concentration of 100 nM, in a FLIPR assay with CHO K1 cells which were transfected with the human VR1 gene at a concentration of less than 6,000 nM, preferably less than 5,000 nM, more preferably less that 3,000 nM or less than 1,000 nM and particularly preferably less than 300 nM, most particularly preferably less than 100 nM, even more preferably less than 75 nM, additionally preferably less than 50 nM, most preferably less than 10 nM.
In the process, the Ca^2+ influx is quantified in the FLIPR assay with the aid of a Ca^2+-sensitive dye (type Fluo-4, Molecular Probes Europe BV, Leiden, the Netherlands) in a fluorescent imaging plate reader (FLIPR, Molecular Devices, Sunnyvale, USA), as described hereinafter. […]
The FLIPR protocol consists of 2 substance additions. First the compounds to be tested (10 µM) are pipetted onto the cells and the Ca^2+ influx is compared with the control (capsaicin 10 µM). This provides the result in % activation based on the Ca^2+ signal after the addition of 10 µM of capsaicin (CP). After 5 min incubation, 100 nM of capsaicin are applied and the Ca^2+ influx is also determined. Desensitising agonists and antagonists lead to suppression of the Ca^2+ influx. The % inhibition is calculated compared to the maximum achievable inhibition with 10 µM of capsazepine.
Triple analyses (n=3) are carried out and repeated in at least 3 independent experiments (N=4). Starting from the percentage displacement caused by different concentrations of the compounds to be tested of general formula I, IC50 inhibitory concentrations which cause a 50% displacement of capsaicin were calculated.
Ki values for the test substances were obtained by conversion by means of the Cheng-Prusoff equation (Cheng, Prusoff; Biochem. Pharmacol. 22, 3099-3108, 1973).
The affinity of selected compounds according to the invention for the vanilloid receptor 1 (VR1/TRPV1 receptor) was determined as described hereinbefore.
The value after the "@"symbol indicates the concentration at which the indicated inhibition (in %) was respectively determined.

[1] = functional (f), Ki from IC50 by Cheng-Prusoff equation, "ne" = did not show any effect in this assay

T1 sequence (Q8NER1 whole entry): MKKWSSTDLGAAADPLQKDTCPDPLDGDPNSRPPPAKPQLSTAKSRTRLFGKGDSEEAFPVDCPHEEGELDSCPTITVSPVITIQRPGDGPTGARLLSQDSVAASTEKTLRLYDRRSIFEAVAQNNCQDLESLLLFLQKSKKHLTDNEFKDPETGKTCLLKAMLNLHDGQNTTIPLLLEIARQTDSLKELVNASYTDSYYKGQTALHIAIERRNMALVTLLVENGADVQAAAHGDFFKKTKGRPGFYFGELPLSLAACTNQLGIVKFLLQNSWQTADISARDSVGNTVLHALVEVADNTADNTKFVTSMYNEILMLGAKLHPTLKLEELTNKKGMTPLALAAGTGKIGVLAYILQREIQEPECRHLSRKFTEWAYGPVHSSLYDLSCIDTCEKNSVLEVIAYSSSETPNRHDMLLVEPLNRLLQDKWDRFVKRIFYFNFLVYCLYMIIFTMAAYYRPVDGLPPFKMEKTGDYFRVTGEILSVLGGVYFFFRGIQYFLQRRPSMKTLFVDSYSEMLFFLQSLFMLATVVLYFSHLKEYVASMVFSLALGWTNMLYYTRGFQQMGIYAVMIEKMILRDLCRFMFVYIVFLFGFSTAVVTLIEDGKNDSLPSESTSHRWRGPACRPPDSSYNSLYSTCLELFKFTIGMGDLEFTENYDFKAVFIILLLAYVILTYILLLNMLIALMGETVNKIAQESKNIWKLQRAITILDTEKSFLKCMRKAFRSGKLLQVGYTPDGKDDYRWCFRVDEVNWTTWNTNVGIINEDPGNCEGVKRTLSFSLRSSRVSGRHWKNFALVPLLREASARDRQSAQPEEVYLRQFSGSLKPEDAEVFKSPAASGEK

SMILES	inhibition at 1 µM	inhibition at 5 µM	Ki [1]	(f) Ki human [nM] CAP [1]
CC1CCN(c2nc(C(F)(F)F)ccc2CNC(=O)NC2Cc3ccccc3C2)CC1 [compound 3, 1-(2,3-dihydro-1H-inden-2-yl)-3-((2-(4-methylpiperidin-1-yl)-6-(trifluoromethyl)pyridin-3-yl)methyl)urea]	0%	89%	–	–
CC1CCN(c2nc(C(F)(F)F)ccc2CNC(=O)NC2CCCc3ccc(O)cc32)CC1 (stereo not drawn) [compound 4, 1-(7-hydroxy-1,2,3,4-tetrahydronaphthalen-1-yl)-3-((2-(4-methylpiperidin-1-yl)-6-(trifluoromethyl)pyridin-3-yl)methyl)urea]	–	–	6.1 nM	–
CC1CCN(c2nc(C(F)(F)F)ccc2CNC(=O)NC2CCCc3c2cnn3C)CC1 (stereo not drawn) [compound 5, 1-(1-methyl-4,5,6,7-tetrahydro-1H-indazol-4-yl)-3-((2-(4-methylpiperidin-1-yl)-6-(trifluoromethyl)pyridin-3-yl)methyl)urea]	0%	27%	–	–
CC1CCN(c2nc(C(F)(F)F)ccc2CNC(=O)NC2CCc3ccccc32)CC1 (stereo not drawn) [compound 1, 1-(2,3-dihydro-1H-inden-1-yl)-3-((2-(4-methylpiperidin-1-yl)-6-(trifluoromethyl)pyridin-3-yl)methyl)urea]	–	–	–	ne
CC1CCN(c2nc(C(F)(F)F)ccc2CNC(=O)NC2CCCc3ccccc32)CC1 (stereo not drawn) [compound 2, 1-((2-(4-methylpiperidin-1-yl)-6-(trifluoromethyl)pyridin-3-yl)methyl)-3-(1,2,3,4-tetrahydronaphthalen-1-yl)urea]	0%	36%	–	–
CC1CCN(c2nc(C(F)(F)F)ccc2CNC(=O)C(C)C2CCCc3ccc(O)cc32)CC1 (stereo not drawn) [comp. no. 6, 2-(7-hydroxy-1,2,3,4-tetrahydronaphthalen-1-yl)-N-((2-(4-methylpiperidin-1-yl)-6-(trifluoromethyl)pyridin-3-yl)methyl)propanamide]	–	–	28.6 nM	–
